How the values were obtained:
[1] = system: isogenic clones of HCT116 colon cancer cells; test: Apoptosis in isogenic HCT116 clones, caspase cleaved cytokeratin-18 ELISA; format: cell-based
Experimental: The increase in sub G1 DNA content is associated with (i) activation of the apoptosis mediator caspase-3 and (ii) with cleavage of the caspase substrates poly-ADP ribose polymerase (PARP) and cytokeratin-18. […] Apoptosis induction by bortezomib is dependent on p53 and inhibited by overexpression of the Bcl-2 protein (16,17).
For determination of apoptosis parental HCT-116 p53+/+ cells were treated with the increasing doses of bortezomib or b-AP15 for 24 h. […] HCT-116 cells were seeded in 96-well microtiter plates at 10,000 cells per well and incubated overnight. Cells were treated with indicated drug for 24 h. At the end of the incubation period, NP40 was added to the tissue culture medium to 0.1% and 25 μl of the content of each well was assayed using the M30-Apoptosense® ELISA as previously described (43). Cell viability was determined by measuring acid phosphatase activity or using the FMCA method (44). For the acid phosphatase activity cells were seeded at 5000 cells per well in 96-well culture plates and incubated for 12 h at 37° C. Compounds were added to the cells in growth media and incubated for 72 h at 37° C. Cells were washed with 200 μl warm PBS. […] Absorbance was measured at 405 nm.
b-AP15 inhibits degradation of ubiquitin-tagged YFP in a proteasome reporter cell line (FIG. 1a). Levels of ^UbG76V-YFP accumulation were determined by flow cytometry and immunoblotting; immunoblot of ubiquitin conjugation in HCT-116 cells treated with b-AP15 (1 μM) or bortezomib (100 nM) (FIG. 1b). […] Immunoblot of ODC-1 levels in HCT-116 cells following treatment with bortezomib ([…] or b-Ap15 (1 μM) (FIG. 1d); values represent quantified optical density units of ODC-1 normalized to β-actin. Cell cycle profiles of b-AP15 treated HCT-116 cells (FIG. 1e); cells were analyzed by propidium iodide staining and flow cytometry. Levels of caspase activity in isogenic HCT-116 cells as determined by ELISA for caspase cleaved cytokeratin-18 (CK18-Asp398) following treatment with bortezomib (100 nM) or b-AP15 (1 μM) (**′P=0.01, ***′P=0.001) (FIG. 1f). […]

[2] = system: Lewis Lung Carcinoma (LLC); test: Lewis Lung Carcinoma (LLC) syngenic tumors in C57BL/6J mice; format: in vivo; settings: 5 mg/kg i.p., day on/2 day off schedule; p=<0.01
Experimental: In order to investigate the effect of b-AP15 on tumor growth in vivo, the compound was administered to mice bearing either a human tumor or mouse xenografts. FaDu head and neck carcinoma were chosen as a SCID mouse xenograft both as a model for a p53mut tumor and since this model is suitable for studies using circulating cell death biomarkers (30). Significant inhibition of FaDu tumor growth was observed following daily treatment with b-AP15 (treated/control tumor volume, T/C=0.4, p=<0.001). Similarly b-AP15 (day on/2 day off schedule) inhibited tumor growth in C57BL/6J mice bearing lung carcinomas (T/C=0.16, p=<0.01). […] To examine whether b-AP15 promotes tumor cell death in vivo, plasma levels of cytokeratin-18 (CK18) were analyzed. […] To investigate the ability of b-AP15 to inhibit proteasome deubiquitination in vivo, accumulation of poly-ubiquitin conjugates was analyzed by means of antibodies specific for K48 linked polyubiquitin chains. Histological analysis of treated tumors confirmed the accumulation of poly-ubiquitin conjugates. […]
Animal experiments were conducted in full accordance with Swedish governmental statutory regulations on animal welfare under permission from local ethical committees. […] All mice were monitored and weighed daily. […] After injection, tumor growth was measured daily with calipers and the tumor volume calculated by the formula L=W^2=0.44. […]

SMILES: C=CC(=O)N1C/C(=C\c2ccc([N+](=O)[O-])cc2)C(=O)/C(=C/c2ccc([N+](=O)[O-])cc2)C1 [b-AP15]
- apoptosis: effect of genetic disruption of BAX or PUMA [1]: does not affect b-AP15 sensitivity
- caspase cleavage of cytokeratin-18: effect of p53 disruption or Bcl-2 overexpression [1]: not affected by genetic disruption of p53 or overexpression of Bcl-2
- treated/control tumor volume, T/C [2]: 0.16
